What was measured:
IRAK4 = molecular target: T1, IRAK4 (Homo sapiens, UniProt Q9NWZ3); test: IRAK4 MSD degradation in OCI-Ly10; type: cell-based; conditions: OCI-Ly10 cells, 24 hrs
T1 construct: endogenous in cells; host or cells: OCI-Ly10
T1 sequence (Q9NWZ3 1-460): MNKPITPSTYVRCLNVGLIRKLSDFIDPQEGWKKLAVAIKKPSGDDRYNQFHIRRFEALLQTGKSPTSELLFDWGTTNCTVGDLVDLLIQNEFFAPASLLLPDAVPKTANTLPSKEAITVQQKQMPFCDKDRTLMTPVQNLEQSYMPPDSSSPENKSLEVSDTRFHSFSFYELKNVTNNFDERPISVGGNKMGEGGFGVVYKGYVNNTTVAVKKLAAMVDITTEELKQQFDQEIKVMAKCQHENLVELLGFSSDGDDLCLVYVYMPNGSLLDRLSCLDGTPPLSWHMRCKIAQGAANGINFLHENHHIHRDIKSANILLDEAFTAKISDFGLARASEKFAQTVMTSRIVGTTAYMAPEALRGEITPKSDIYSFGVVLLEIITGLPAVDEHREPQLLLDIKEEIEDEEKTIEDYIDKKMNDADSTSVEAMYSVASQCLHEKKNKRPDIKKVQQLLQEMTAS
Description: Degradation of IRAK4 in OCI-Ly10 was quantitatively measured using Meso Scale Discovery technology. OCI-Ly10 cells were seeded in 96-well plates (Corning 3799) with a density of 300,000 cells per well in 100 μL fresh media. Compounds were then added to the assay plates with a final top concentration of 1 to 10 μM in a 1:3 dilution series with total of 8 doses. The assay plates were then incubated for 4 to 24 hours at 37° C. under 5% CO2. The assay plates were then centrifuged for 5 minutes and the cell pellets were treated with 100 μL/well RIPA lysis buffer (Boston BioProducts BP-115D) with proteinase inhibitors. To prepare MSD assay plates (Meso Scale Discovery Catalog number L15XA-3), the plates were coated with 2 μg/mL capture antibody (mouse Anti-IRAK4 antibody [2H9], ab119942) in PBS, at 40 μL/well. The plates were then incubated overnight at 4° C., washed 3 times with 150 μL/well TBST buffer (Cell Signaling Technology, Catalog number 9997S) and blocked with 150 μL/well blocking buffer (Meso Scale Discovery Catalog number R93BA-4). Cell lysates were then added to MSD assay plates and the plates were incubated at room temperature for 1 hour. The plates were then washed 3 times with 150 μL/well TBST buffer and […] primary detection antibody (rabbit Anti-IRAK4 antibody [Y279], from Abcam. Catalog number ab32511, 1 μg/mL). The assay plates were then incubated at room temperature for 1 hour, washed 3 times with 150 μL/well TBST buffer and 25 μL/well secondary detection antibody, SULFO-TAG anti-rabbit antibody were added (anti rabbit antibody from Meso Scale Discovery, Catalog number R32AB-1, 1 μg/mL). The assay plates were then incubated at room temperature for 1 hour, washed 3 times with 150 μL/well TBST buffer, and 150 μL/well MSD reading buffer (Meso Scale Discovery catalog number R92TC-2) was added. The plates were then analyzed by a MSD reader (Meso Scale Discovery, Model Quick Plex SQ 120). The data was then analyzed by software Prism 7.0 from GraphPad and the dose-depended IRAK4 degradation were fit using a three-parameter logistic equation to calculate DC50.

OCI-Ly10 = test: CTG cell viability assay - OCI-Ly10; type: cell-based; conditions: Homo sapiens, 96 h; OCI-Ly10, 4 days
Description: Compound-mediated viability effect on OCI-Ly10 or SUDHL-2 was quantitatively determined using the CellTiter-Glo® Luminescent Cell Viability Assay kit from Promega (Catalog number G7570) following manufacturer's recommended procedures. Briefly, OCI-Ly10 or SUDHL-2 cells were seeded into 384 well plates (Grenier Bio-One, Catalog number 781080) with a density of 10,000 cells per well. Compounds were then added to the assay plate with final top concentration of 10 μM and 1:3 dilution series with total of 9 doses. The final DMSO concentration was normalized to 0.2%. The assay plates were incubated at 37° C. for 4 days under 5% CO2. Then the assay plate was equilibrated at room temperature for 10 minutes. To determine cell viability, 30 μL CellTiter Glo reagent was added to each well and the assay plate was centrifuged at 1000 rpm for 30 second, incubated at room temperature for 10 min, and analyzed by detecting the luminescence using a multimode plate reader (EnVision 2105, PerkinElmer). The data was then analyzed by software Prism 7.0 from GraphPad and the dose response curves were fit using a three-parameter logistic equation to calculate IC50.

[1] = tested on: MYD88-mutant and wild type DLBCL PDX models; conditions: MYD88 MT model LY0257 with mutation in Aiolos; cited from earlier work

`CC(C)(O)c1cc2nc([C@H]3CC[C@H](CN4CC5(CC(CCNc6cccc7c6C(=O)N([C@@H]6CCC(=O)NC6=O)C7=O)C5)C4)CC3)sc2cc1NC(=O)c1cccc(C(F)(F)F)n1` (single isomer, unassigned) [Compound (R)-A] showed a DC50 (IRAK4) of less than 50 nM and an IC50 (OCI-Ly10) of less than 50 nM.

For `CC(C)(O)c1cc2nc([C@H]3CC[C@H](CN4CC5(CC(CCNc6cccc7c6C(=O)N([C@H]6CCC(=O)NC6=O)C7=O)C5)C4)CC3)sc2cc1NC(=O)c1cccc(C(F)(F)F)n1` (single isomer, unassigned) [Compound (S)-A], the DC50 (IRAK4) was less than 50 nM and the IC50 (OCI-Ly10) was less than 50 nM.

In the case of `Nc1cccc2c1CN(C1CCC(=O)NC1=O)C2=O` (centres unmarked) [lenalidomide], the “sensitivity of PDX model LY0257” value [1] is given as “insensitive”.
